Results on five compounds are retold here after US10918714B2, “Human iNKT cell activation using glycolipids with altered glycosyl groups” (Academia Sinica, priority 2013, dated 2021).

The structures appear in SMILES notation. “Also recorded” adds a separate entry of the source.

The target in one test is human iNKT TCR (Homo sapiens, UniProt A0A0B4J240+P15813). The test is described as follows: Binding avidity of hCD1d-loaded glycolipids with Vα24+ iNKT cells (ternary interaction). How it is done: Binding avidity of human CD1d-glycolipid complexes to Vα24^+ iNKT cells expanded by 7DW8-5 at 100 ng/ml was determined as described previously.^19
(§1) Vα24^+ iNKT cell lines expanded with 7DW8-5 or C1 were generated as follows. After irradiation with 2,000 rad, the immature DCs were cocultured with syngenic Vα24^+ iNKT cells in the presence of 7DW8-5 or C1 at 100 ng/ml for 1 day. The cells were expanded in the presence of 50 U/ml IL-2 for 10-14 days after lipid removal. The same procedures were repeated once for further stimulation and expansion of iNKT cells.

Test [1] has as its system Murine DN3A4-1.2 Vα14+ iNKT hybridoma cells. Put plainly: mCD1d vs. hCD1d swapping assay, murine iNKT cells. In kind it is cell-based, mouse. As to conditions: presented by mCD1d (A20-CD1d) or hCD1d (HeLa-CD1d), 1, 0.1, 0.01 μg/ml. On the procedure: (§2) Murine DN3A4-1.2 Vα14^+ iNKT hybridoma cells or C1-expanded Vα24^+ iNKT cells were pulsed with the indicated glycolipid antigen presented either by mCD1d (A20-CD1d cells) or hCD1d (HeLa-CD1d cells) at 1, 0.1, and 0.01 μg/ml. After 18 hr, the supernatants were harvested for the measurement of cytokine secretion(s). IL-2 released from Vα14^+ iNKT cells was determined by ELISA assay. IFN-γ, IL-4 and IL-2 secreted from Vα24^+ iNKT cells were detected using Beadlyte® Human Cytokine kit (Millipore, N.Y., USA) and Luminex® 200™ reading system.

In a further test the test system is B6 wild type mice. The test is described as follows: Murine serum cytokine/chemokine secretion after i.v. glycolipid, B6 WT mice. In kind it is in vivo. Conditions: i.v. 1 μg/mouse; for induction of serum cytokines/chemokines: sera 2 and 18 hr after injection. On the procedure:
(§3) All the glycolipids were dissolved in 100% DMSO at a concentration of 1-2 mg/ml. For in vivo experiments, all compounds were diluted to 10 μg/ml in saline just before injection of 100 μl diluted glycolipid or 100 μl 1% DMSO into mice. Pathogen-free C57BL/6 female mice aged 6-12 weeks were obtained from the National Laboratory Animal Center (Taipei, Taiwan). Jα18 knockout (KO) B6 mice were the gifts from Dr. Masaru Taniguchi (RIKEN Research Center for Allergy and Immunology, Yokohama, Japan). All the mice were maintained in pathogen free vivarium of Institute of Cellular and Organismic Biology, Academia Sinica (Taipei, Taiwan).
(§4) B6 WT or Jα18 KO mice were intravenously injected with vehicle or glycolipids at 0.1 or 1 μg/mouse. Serum was collected at 2 and 18 h after injection for measurement of cytokines/chemokines by Beadlyte® Mouse Cytokine kit (Millipore, N.Y.) and read by a Luminex® 200™ system (Luminex, Austin, Tex.).

The next test addresses mouse iNKT TCR (Mus musculus, UniProt A0A0B4J1J9+P11609). The test is described as follows: Binding avidity of mCD1d-loaded glycolipids to Vα14+ iNKT cells (ternary interaction). Conditions: for Kd: mCD1d-glycolipid complex, DN3A4-1.2 murine iNKT hybridoma cells. How it is done:
Briefly, murine CD1d:Ig dimer (BD Biosciences PharMingen, San Diego, Calif.) was loaded with glycolipids at a molar ratio of 1:10 or vehicle for overnight at 37° C. Murine 1.2 Vα14^+ iNKT cells were incubated with various doses of dimer-glycolipid complex in buffer containing azide (0.05%) for 30 min at 4° C. These cells were then stained with anti-mouse IgG1-PE mAb (A85-1) for another 30 min at 4° C., followed by washing, fixation with 4% paraformaldehyde (PFA), and the bound mCD1d dimer complexes were detected by flow cytometry. The binding curve and linear fit of the Scatchard transformation were plotted by Graphpad Prism software.

Test [2] relates to C1-expanded Vα24+ iNKT cells. Put plainly: mCD1d vs. hCD1d swapping assay, human iNKT cells. In kind it is cell-based. As to conditions: presented by mCD1d (A20-CD1d) or hCD1d (HeLa-CD1d), 1, 0.1, 0.01 μg/ml. How it is done: as §1, §2
A further test concerns B6 WT mice splenocytes. Put plainly: FACS analyses of WT mouse immune cells (splenocytes) after glycolipid stimulation. In kind it is in vivo. As to conditions: 1 μg/mouse, 72 hr post-injection. How it is done:
(§5) B6 WT or Jα18 KO mice treated with specific glycolipid (1 μg/mouse) or vehicle (1% DMSO in PBS) were sacrificed at 72 hr post-injection and their spleens were harvested. After pressing spleens through 70 um strainer and lysis of erythrocytes, the nucleated cells were resuspended in PBS buffer containing azide (0.05%) and stained with antibodies recognizing the indicated cell surface antigens for 30 min at 4° C. After washing, the splenocytes were subjected to FACS analysis. The antibodies against CD3, CD4, CD8β, CD11c, CD80, and CD86 were obtained from BD Bioscience-Pharmingen.

The next test concerns human iNKT cell. As to conditions: as compared to αGalCer; cited from earlier work.
Another test deals with murine iNKT cell. As to conditions: as compared to αGalCer; cited from earlier work.
For the next test, the system named is C1-pulsed splenocytes. The test is described as follows: CD1d dimer staining of in vivo C1-pulsed splenocytes. In kind it is binding. Conditions: B6 WT splenocytes 3 days after C1 1 μg/mouse, CD3+/CD45R− gate. How it is done: FIGS. 11A-D show: CD1d dimer staining of in vivo C1-pulsed splenocytes. B6 WT splenocytes (n=3) were harvested 3 days after injection with C1 (1 μg/mouse) and stained with CD3, CD45R and the indicated dimer complex conjugated with RPE for 1 hr at 4 degrees Celsius. (11A) CD3+/CD45R− cells were gated to analyze the dimer staining. (11B) unloaded dimer was used as the control. (11C) mCD1d dimer loaded with 7DW8-5-Glc stained 17.1±0.8% of C1-pulsed splenocytes. (11D) mCD1d dimer loaded with 7DW8-5 stained 36.2±5.0% of C1-pulsed splenocytes.

The subject of test [3] is Human naïve Vα24+ iNKT cells. Put plainly: Expansion of human iNKT cells. In kind it is cell-based. Conditions: DCs pulsed with glycolipid at 100 ng/ml, IL-2 culture. How it is done: Human naïve Vα24^+ iNKT cells were cultured with autologous immature CD14^+ DCs pulsed with the indicated glycolipid at 100 ng/ml or DMSO on day 2 for 18 h. On day 3, the suspension cells were transferred to a new dish, cultured in the presence of 50 U/ml IL-2 (R & D Systems), and replenished with fresh medium every 3 days. The percentage of Vα24^+/Vβ11^+ cells was determined by flow cytometry on day 9. The total cell number after expansion was calculated with the Guava ViaCount reagent (Millipore, USA) and detected by the Guava system with CytoSoft™ software containing the ViaCount module (Millipore, USA).
Vα24^+ iNKT cells and CD14^+ cells were isolated from peripheral blood cells as described previously.^19 Immature DCs were generated from the CD14^+ cells after 2-day incubation in the presence of 300 U/ml GM-CSF (R & D Systems) and 100 U/ml IL-4 (R& D Systems).

Test [4] deals with Jα18 knockout mice. The test is described as follows: Murine serum cytokine/chemokine secretion after i.v. glycolipid, Jα18 knockout mice. In kind it is in vivo. Conditions: Jα18 KO mice, 1 μg/mouse. How it is done: as §3, §4
For test [5], the system named is Jα18 KO mouse splenocytes. Put plainly: FACS analyses of Jα18 KO mouse immune cells (splenocytes) after glycolipid stimulation. In kind it is in vivo. Conditions: Jα18 KO mice, 3 days after i.v. injection, 1 μg/mouse. How it is done:
as §5

In a further test the target is T1, mCD1d dimer (Mus musculus, UniProt P11609).
T1 construct: Ig fusion (dimer); purchased BD Biosciences PharMingen
T1 sequence (P11609 19-305 limits assumed): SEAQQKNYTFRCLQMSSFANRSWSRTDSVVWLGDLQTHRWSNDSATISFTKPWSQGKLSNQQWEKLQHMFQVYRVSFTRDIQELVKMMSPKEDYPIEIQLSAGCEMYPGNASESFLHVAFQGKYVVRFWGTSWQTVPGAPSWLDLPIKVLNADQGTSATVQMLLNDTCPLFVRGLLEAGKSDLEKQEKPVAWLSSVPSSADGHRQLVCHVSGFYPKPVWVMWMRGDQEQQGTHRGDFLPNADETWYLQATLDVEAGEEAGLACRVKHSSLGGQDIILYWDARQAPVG
T1 sequence (P01887 21-119 partner): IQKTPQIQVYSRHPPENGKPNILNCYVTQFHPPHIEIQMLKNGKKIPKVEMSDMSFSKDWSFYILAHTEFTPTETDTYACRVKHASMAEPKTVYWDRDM
Put plainly: Binding strength of the binary complex between mCD1d and glycolipid (L363 antibody ELISA). As to conditions: KD from Scatchard transformation (FIG. 10D). How it is done: Different concentrations of mCD1d^di-glycolipid complexes coated on the ELISA plate were incubated with the saturated amounts of L363 antibody (BioLegend) conjugated with biotin, followed by streptavidin-HRP detection and ELISA measurement. The KD between L363 antibody and the indicated mCD1d^di-glycolipid complex was calculated from the linear regression of the Scatchard transformation of the L363 antibody binding curve using GraphPad Prism software. […] Next, the KD of the binary complex was determined as follows. Different concentrations of glycolipids were incubated with fixed amounts of mCD1d dimer at 37° C. overnight, and then mCD1d^di-glycolipid complexes were coated on the 96 well ELISA plate at 4° C. overnight. After washing and blocking with BSA at room temperature (RT) for 1 hr, L363 antibody conjugated with biotin was added for 30 min at RT, followed by incubation with streptavidin-HRP for 30 min at RT and detection with an ELSIA reader. KD values of the binary complex were calculated from the linear regression of the Scatchard transformation of the L363 antibody binding curve.

Test [6] has as its system Jα18 knockout mice. As to conditions: Jα18 KO mice; cited from earlier work.

mouse iNKT TCR, sequence (A0A0B4J1J9 entry or part of it, one chain of several): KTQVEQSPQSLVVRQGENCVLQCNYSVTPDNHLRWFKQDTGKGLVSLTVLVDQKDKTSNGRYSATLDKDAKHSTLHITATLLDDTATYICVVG
human iNKT TCR, sequence (A0A0B4J240 22-114): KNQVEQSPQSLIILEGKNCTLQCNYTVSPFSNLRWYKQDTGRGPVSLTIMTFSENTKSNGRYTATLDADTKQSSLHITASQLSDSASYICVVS
human iNKT TCR, sequence (A0A075B6N4 22-114, further chain): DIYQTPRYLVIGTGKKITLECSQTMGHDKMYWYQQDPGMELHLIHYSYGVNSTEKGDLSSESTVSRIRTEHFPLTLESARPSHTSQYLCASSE
human iNKT TCR, sequence (P61769 21-119, further chain): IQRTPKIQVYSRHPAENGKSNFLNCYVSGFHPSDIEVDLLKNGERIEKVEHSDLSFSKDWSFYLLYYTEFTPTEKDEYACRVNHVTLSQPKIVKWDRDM
human iNKT TCR, sequence (P15813 20-301): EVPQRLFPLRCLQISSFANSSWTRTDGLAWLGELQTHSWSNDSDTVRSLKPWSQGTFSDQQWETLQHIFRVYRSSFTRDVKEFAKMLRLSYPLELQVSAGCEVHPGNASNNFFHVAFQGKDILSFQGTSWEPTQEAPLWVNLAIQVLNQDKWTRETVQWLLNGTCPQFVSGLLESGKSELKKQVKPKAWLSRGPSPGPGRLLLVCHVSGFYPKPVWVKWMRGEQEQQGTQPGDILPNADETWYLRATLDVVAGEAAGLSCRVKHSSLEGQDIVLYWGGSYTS

For `CCCCCCCCCCCCCC[C@@H](O)[C@@H](O)[C@H](CO[C@H]1O[C@H](CO)[C@@H](O)[C@H](O)[C@@H]1O)NC(=O)CCCCCCCCCCc1ccc(F)cc1` [Compound 7DW8-5-Man], the “staining of human iNKT cells with CD1d-glycolipid dimer” value on human iNKT TCR was “lack of staining”. The “cytokine secretion from mouse iNKT cells” value in [1] is “could not stimulate”. In the test with B6 wild type mice, the “induction of serum cytokines/chemokines” value is “failed to induce any cytokines/chemokines”. At mouse iNKT TCR, the “staining of murine iNKT cells with CD1d-glycolipid dimer” value is “lack of staining”. Besides, in test [2], the “cytokine secretion from human iNKT cells” value is “could not stimulate”. For the same compound, the “expansion of immune cells” value with B6 WT mice splenocytes was “did not expand any types of immune cells”.

Regarding `CCC(=O)N[C@@H](CO[C@H]1OC(CO)[C@@H](O)C(O)C1O)[C@H](O)[C@H](O)CC` (stereo partly drawn) [Compound C1-Glc], the “human iNKT cell proliferation” value in the test on human iNKT cell was “more potent”. Besides, in the test on murine iNKT cell, the “murine iNKT cell proliferation” value is recorded as “less stimulatory”. In the test on B6 wild type mice, the “induction of serum cytokines/chemokines” value is “triggered both cytokines and chemokines; also recorded: better than 7DW8-5-Glc”. Besides, the Kd on mouse iNKT TCR was 5.14 ± 0.11 nM. Further, in the test with B6 WT mice splenocytes, the “CD80+ DCs activated, as compared to 7DW8-5-Glc” value is roughly 3.5 fold; the “CD86+ DCs activated, as compared to 7DW8-5-Glc” value is roughly 3 fold; the “total splenocytes and DCs expanded, as compared to 7DW8-5-Glc” value was roughly 1.3 fold.

In the case of `CC[C@@H](O)[C@@H](O)[C@H](CO[C@H]1OC(CO)[C@@H](O)C(O)C1O)NC(=O)Cc1ccc(F)cc1` (stereo partly drawn) [Compound 7DW8-5-Glc], the “C1-pulsed splenocytes stained by mCD1d dimer loaded with glycolipid” value in the test with C1-pulsed splenocytes came out at 17.1±0.8%. In [3], the “expanding human iNKT cells in vitro (number of expanded iNKT cells on day 9)” value is “significantly (p=0.0009) better than 7DW8-5”. Moreover, in the test on Jα18 knockout mice [4], the “secretion of chemokines including KC, MCP-1, IP-10 and MIG” value is “triggered the secretion”. In the test with Jα18 knockout mice [4] (sera 2 and 18 hr after injection), the induction of cytokines entry was “no induction of cytokines”. Also, in [5], the “CD11chi monocyte-derived DCs expansion and activation” value was “significantly expanded and activated”; the “total splenocytes, CD4+ T and CD8+ T cells” value was “No significant differences”. Also, in the test on B6 wild type mice (sera 2 and 18 hr), the “levels of KC, MCP-1, IP-10 and MIG chemokines” value is listed as “relatively high levels”; the “levels of Th1 and Th2 cytokines” value is “very low levels”. The “binding avidity of the murine ternary complex versus C34-Glc” value at mouse iNKT TCR was “comparable”. For the same compound, on mCD1d dimer, the “binding avidity to mCD1d dimer relative to αGalCer” value was roughly 20 fold.

As for `CC[C@@H](O)[C@@H](O)[C@H](CO[C@H]1OC(CO)[C@@H](O)C(O)C1O)NC(=O)Cc1ccc(Oc2ccc(F)cc2)cc1` (stereo partly drawn) [Compound C34-Glc], the “induction of serum cytokines/chemokines” value in the test with B6 wild type mice was “triggered both cytokines and chemokines; also recorded: better than 7DW8-5-Glc”. Further, the Kd on mouse iNKT TCR was 7.96 ± 1.27 nM. In the test on B6 WT mice splenocytes, the “CD80+ DCs activated, as compared to 7DW8-5-Glc” value was roughly 2 fold and the “CD86+ DCs activated, as compared to 7DW8-5-Glc” value is listed as roughly 2 fold.

As for `CCCCCCCCCCCCCCCCCCCCCCCCCC(=O)N[C@@H](CO[C@H]1O[C@H](CO)[C@H](O)[C@H](O)[C@H]1O)[C@H](O)[C@H](O)CCCCCCCCCCCCCC` [Compound C1, α-galactosylceramide, reference compound], the Kd on human iNKT TCR (hCD1d-glycolipid complex, human Vα24+/Vβ11+ iNKT cells) was found to be 16.4 ± 4.2 nM; at mouse iNKT TCR, 1.24 ± 0.003 nM. For the same compound, in the test on Jα18 knockout mice [6], the “IFN-γ in the sera” value is “not secreted”.
